Test results reported in ChEMBL document CHEMBL1201862, “PubChem BioAssay data set” (2004).
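Tested at 5 concentrations; 48 h exposure; 96-well plates; endpoints linearly interpolated, else capped at highest concentration. GI50 marks 50% less growth.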 Calls of active or inactive are those of the source. Cut-off read from the data, not from the text of the source: active = GI50 up to about 1.1 µM and inactive = higher.

Key:
Assay in all cases: NCI anticancer screen, dose series, 48 h
A549 = test system: A549
COLO 205 = test system: COLO 205
HCT-116 = test system: HCT-116
HOP-62 = test system: HOP-62
HOP-92 = test system: HOP-92
IGROV-1 = test system: IGROV-1
MOLT-4 = test system: MOLT-4
NCI-H226 = test system: NCI-H226
RPMI-8226 = test system: RPMI-8226
SF-268 = test system: SF-268
SF-539 = test system: SF-539
SK-MEL-5 = test system: SK-MEL-5
SN12C = test system: SN12C
SNB-19 = test system: SNB-19
U-251 = test system: U-251
LOX IMVI = test system: LOX IMVI
A498 = test system: A498

Row | SMILES | GI50 (A549) | GI50 (COLO 205) | GI50 (HCT-116) | GI50 (HOP-62) | GI50 (HOP-92) | GI50 (IGROV-1) | GI50 (MOLT-4) | GI50 (NCI-H226) | GI50 (RPMI-8226) | GI50 (SF-268) | GI50 (SF-539) | GI50 (SK-MEL-5) | GI50 (SN12C) | GI50 (SNB-19) | GI50 (U-251) | GI50 (LOX IMVI) | GI50 (A498)
1 | Cc1ccccc1N(CCC#N)C1=NN(C(=O)CC(=O)Nc2ccc(Cl)cc2)C(c2ccccc2)C1 (centres undefined) | > 100 µM (inactive) | > 100 µM (inactive) | > 100 µM (inactive) | > 100 µM (inactive) | > 100 µM (inactive) | > 100 µM (inactive) | > 100 µM (inactive) | > 100 µM (inactive) | > 100 µM (inactive) | > 100 µM (inactive) | > 100 µM (inactive) | > 100 µM (inactive) | > 100 µM (inactive) | > 100 µM (inactive) | > 100 µM (inactive) |  | 
2 | Cc1c(C(=O)Nc2ccc(Cl)cc2)nc(N)nc1-c1cccc(Cl)c1 | 74.5 µM (inactive) | 77.3 µM (inactive) | 57.3 µM (inactive) | > 100 µM (inactive) | 28.4 µM (inactive) | > 100 µM (inactive) | > 100 µM (inactive) | > 100 µM (inactive) |  | > 100 µM (inactive) | > 100 µM (inactive) | > 100 µM (inactive) | > 100 µM (inactive) | > 100 µM (inactive) | > 100 µM (inactive) | > 10 µM (inactive) | 
3 | Cc1cc(O)nc(NNC(C#N)c2ccc([N+](=O)[O-])cc2)n1 (centres undefined) | > 100 µM (inactive) | > 100 µM (inactive) | 80.4 µM (inactive) | > 100 µM (inactive) | > 100 µM (inactive) | 76.9 µM (inactive) | > 100 µM (inactive) | > 100 µM (inactive) | > 100 µM (inactive) | > 100 µM (inactive) | > 100 µM (inactive) | > 100 µM (inactive) | > 100 µM (inactive) |  | > 100 µM (inactive) | > 100 µM (inactive) | 
4 | COC[C@@H](/N=C/N1CCc2cc(OC)c(OC)cc2[C@@H]1C)C(C)(C)C | > 100 µM (inactive) | > 100 µM (inactive) | > 100 µM (inactive) | > 100 µM (inactive) | > 100 µM (inactive) | > 100 µM (inactive) | > 100 µM (inactive) | > 100 µM (inactive) | > 100 µM (inactive) | > 100 µM (inactive) | > 100 µM (inactive) | > 100 µM (inactive) | > 100 µM (inactive) | > 100 µM (inactive) | > 100 µM (inactive) |  | 
5 | COc1ccc2c(c1)[n+]([O-])c(-c1ccc([N+](=O)[O-])cc1)c(N)[n+]2[O-] | 70.8 µM (inactive) | 47.4 µM (inactive) | 26.6 µM (inactive) | > 100 µM (inactive) | > 100 µM (inactive) | 75.2 µM (inactive) | 22.3 µM (inactive) | > 100 µM (inactive) |  | 78.2 µM (inactive) | > 100 µM (inactive) | > 100 µM (inactive) | > 100 µM (inactive) | > 100 µM (inactive) | 68.1 µM (inactive) |  | > 100 µM (inactive)
6 | Nc1c(Cl)ncnc1NCCCCCCCCCCCCNc1ncnc(Cl)c1N | 2.07 µM (inactive) | 8.24 µM (inactive) | 0.0469 µM (active) | 0.254 µM (active) | 1.32 µM (inactive) | 1.55 µM (inactive) | 0.167 µM (active) |  | 1.5 µM (inactive) | 2.3 µM (inactive) | 3.37 µM (inactive) | < 0.01 µM (active) | 3.13 µM (inactive) | 4.57 µM (inactive) | 0.0857 µM (active) | < 0.01 µM (active) | 6.05 µM (inactive)
7 | CC(=O)OCC(OC(C)=O)C(OC(C)=O)C(OC(C)=O)C(=O)CNn1c(-c2ccccc2Cl)nc2ccc(Br)cc2c1=O (centres undefined) | > 100 µM (inactive) | > 100 µM (inactive) | > 100 µM (inactive) | > 100 µM (inactive) |  |  | 34.6 µM (inactive) |  | 27 µM (inactive) | > 100 µM (inactive) | > 100 µM (inactive) | 57.5 µM (inactive) | 36.3 µM (inactive) | 81.1 µM (inactive) | 87.9 µM (inactive) | 82 µM (inactive) | 55.7 µM (inactive)
8 | CN[C@H](C)[C@@H](OC)c1ccccc1 | > 100 µM (inactive) | > 100 µM (inactive) | > 100 µM (inactive) | > 100 µM (inactive) | > 100 µM (inactive) | > 100 µM (inactive) | > 100 µM (inactive) | > 100 µM (inactive) | > 100 µM (inactive) |  |  | > 100 µM (inactive) | > 100 µM (inactive) | > 100 µM (inactive) | > 100 µM (inactive) | > 100 µM (inactive) | 
9 | CN(C)CCNC(=O)c1cccc2c(Nc3ccc(S(=O)(=O)N=C(N)N)cc3)c3ccccc3nc12 | 10.6 µM (inactive) | 9.04 µM (inactive) | 25.8 µM (inactive) | 11.3 µM (inactive) |  | 7.1 µM (inactive) | 2.03 µM (inactive) | 2.19 µM (inactive) |  | 7.24 µM (inactive) | 11.3 µM (inactive) | 13.9 µM (inactive) | 5.15 µM (inactive) | 3.37 µM (inactive) | 8.36 µM (inactive) | 5.94 µM (inactive) | 
10 | CCN(CC)CCNC(=O)c1ccccc1Nc1c(Cl)cccc1Cl | 17 µM (inactive) | 12.9 µM (inactive) | 12.8 µM (inactive) | 11.3 µM (inactive) |  | 19.1 µM (inactive) | 13.1 µM (inactive) | 17.8 µM (inactive) | 12.2 µM (inactive) | 18.2 µM (inactive) | 17 µM (inactive) | 11.8 µM (inactive) | 13.7 µM (inactive) | 16.4 µM (inactive) | 6.56 µM (inactive) | 11.3 µM (inactive) | 
11 | COC1=CC(=O)C2C(C1=O)[C@@H]1c3ccccc3OC[C@H]21 (some centres undefined) | > 100 µM (inactive) | > 100 µM (inactive) | > 100 µM (inactive) | > 100 µM (inactive) | > 100 µM (inactive) |  | > 100 µM (inactive) | > 100 µM (inactive) | > 100 µM (inactive) | > 100 µM (inactive) | > 100 µM (inactive) | > 100 µM (inactive) |  | > 100 µM (inactive) | > 100 µM (inactive) | > 100 µM (inactive) | > 100 µM (inactive)
12 | N=C(N)NS(=O)(=O)c1ccc(NCc2c3ccccc3[n+]([O-])c3ccccc23)cc1 | 17.6 µM (inactive) | 68.5 µM (inactive) | 8.11 µM (inactive) | 15.9 µM (inactive) | 0.394 µM (active) | 19.8 µM (inactive) | 1.94 µM (inactive) | 9.55 µM (inactive) | 12.4 µM (inactive) | 11.8 µM (inactive) |  | 14 µM (inactive) | 15 µM (inactive) | 18.8 µM (inactive) | 16.6 µM (inactive) | 11.1 µM (inactive) | 13.6 µM (inactive)
13 | N#CC(C(=N/O)/C(=N/O)C(C#N)c1ccc(Cl)cc1)c1ccc(Cl)cc1 (centres undefined) | > 100 µM (inactive) | 64.6 µM (inactive) | > 100 µM (inactive) | > 100 µM (inactive) | > 100 µM (inactive) | > 100 µM (inactive) |  | 75.5 µM (inactive) | 40.5 µM (inactive) | > 100 µM (inactive) | > 100 µM (inactive) |  | > 100 µM (inactive) | > 100 µM (inactive) | > 100 µM (inactive) | 82.8 µM (inactive) | > 100 µM (inactive)
14 | Oc1cccnc1/C=N/OCc1ccccc1 | > 100 µM (inactive) | > 100 µM (inactive) | > 100 µM (inactive) | > 100 µM (inactive) |  | > 100 µM (inactive) | > 100 µM (inactive) | > 100 µM (inactive) | > 100 µM (inactive) | > 100 µM (inactive) | > 100 µM (inactive) | > 100 µM (inactive) | 97.1 µM (inactive) | > 100 µM (inactive) | > 100 µM (inactive) | > 100 µM (inactive) | > 100 µM (inactive)
15 | O=C(CCc1nnc2s/c(=C\c3ccccc3[N+](=O)[O-])c(=O)n12)Nc1cc(Cl)c(Cl)cc1Cl | 30.5 µM (inactive) | 83.4 µM (inactive) | 17.5 µM (inactive) | 23.1 µM (inactive) | 18.7 µM (inactive) | 69.5 µM (inactive) | 21 µM (inactive) | 16.4 µM (inactive) |  | 26.5 µM (inactive) | 21.1 µM (inactive) | 34.1 µM (inactive) | 24.6 µM (inactive) | 30.1 µM (inactive) | 16.9 µM (inactive) | 20.8 µM (inactive) | 20.4 µM (inactive)
16 | O=C(NC1CCC[C@H]1OC(=O)c1ccccc1)c1ccccc1 (some centres undefined) | 40.4 µM (inactive) |  | 81.3 µM (inactive) |  | 25.6 µM (inactive) | > 100 µM (inactive) | 30.1 µM (inactive) | 13.7 µM (inactive) |  | 86.5 µM (inactive) | > 100 µM (inactive) | 37.2 µM (inactive) | 66.4 µM (inactive) | > 100 µM (inactive) | > 100 µM (inactive) |  | 33.1 µM (inactive)
17 | C=Cc1ccc(C)[n+](C[Si](C)(C)O[Si](C)(C)C[n+]2cc(C=C)ccc2C)c1 | 71.8 µM (inactive) | > 100 µM (inactive) | > 100 µM (inactive) | > 100 µM (inactive) | > 100 µM (inactive) | > 100 µM (inactive) | > 100 µM (inactive) | > 100 µM (inactive) | > 100 µM (inactive) | > 100 µM (inactive) | > 100 µM (inactive) | > 100 µM (inactive) | > 100 µM (inactive) | > 100 µM (inactive) | > 100 µM (inactive) | > 100 µM (inactive) | 
18 | Nc1ccccc1S(=O)(=O)N(CC(=O)O)c1ccccc1 | > 100 µM (inactive) | > 100 µM (inactive) |  |  | > 100 µM (inactive) | > 100 µM (inactive) | > 100 µM (inactive) |  | > 100 µM (inactive) | > 100 µM (inactive) | > 100 µM (inactive) | > 100 µM (inactive) | > 100 µM (inactive) | > 100 µM (inactive) | > 100 µM (inactive) | > 100 µM (inactive) | > 100 µM (inactive)
